Results published in PMC5967867, “An NMDAR positive and negative allosteric modulator series share a binding site and are interconverted by methyl groups” (eLife, 2018).

The compounds below were run on NMDARs (assay: Whole-cell recordings of modulation at +40 mV and -60 mV (voltage dependence)). Conditions: 10 µM test compound.
Type: cell-based, rat
Procedure: Figure 4. The association and dissociation time course of EU1794-2, EU1794-4 and EU1794-27 differ at GluN1/GluN2A and GluN1/GluN2D. (A) Representative whole-cell current recordings of GluN1/GluN2D NMDARs exemplifying the modulation time course of EU1794-2, EU1794-4 and EU1794-27 (1, 3, 10 µM). […] Insets show the steady state modulation extent from the HEK cell experiments fit by the Hill equation (Hill slope fixed to 1). (B) Analysis of the time course for the onset of PAM and NAM action as a function of concentrations for EU1794-2 (left), EU1794-4 (left) and EU1794-27 (right) used to determine the association rate kON (black circles) and dissociation rate kOFF (grey squares), from which we can calculate Kd for each modulator. Data are from at least 3 cells for each concentration of modulator. For EU1794-27 the association and dissociation rate linear component was also found to be concentration dependent (mon = −0.98 pA/(ms*µM), moff = 0.62 pA/(ms*µM)). (C,D) Similar set of panels as A,B but examining EU1794-2, EU1794-4 and EU1794-27 modulation of GluN1/GluN2A. In example recordings, all modulator concentrations are 10 µM. Data are from at least 3 cells for each concentration of modulator. For EU1794-27 time-course was fitted with the sum of an exponential and linear function, and both the time constant and slope were concentration dependent (mon = −0.33 pA/(s*µM), moff = 0.16 pA/(s*µM)). Figure 4—figure supplement 1. The actions of EU1794 modulators are voltage-independent and are influenced by the desensitization level. (A–C) A representative current response of EU1794-2 (A, the ratio of the % modulation by EU1794-2 at +40 mV and −60 mV was 1.1 ± 0.27, n = 3), EU1794-4 (B, the ratio of modulation at +40 mV and −60 mV was 0.88 ± 0.06, n = 6) and EU1794-27 (C, the ratio of modulation at +40 mV and −60 mV was 0.99 ± 0.15, n = 3) modulation with the Vm held at +40 mV and −60 mV; all responses shown were using 10 µM of test compound. […]

SMILES | ratio of the % modulation at +40 mV and −60 mV
CCOC(=O)c1c(NC(=O)CC2SC(=N)NC2=O)sc2c1CCC(C)C2 (stereo not drawn) [EU1794-2, ethyl 2-(2-(2-imino-4-oxothiazolidin-5-yl)acetamido)-6-methyl-4,5,6,7-tetrahydrobenzo[b]thiophene-3-carboxylate] | 1.1 ± 0.27
CC(C)(C)OC(=O)c1c(NC(=O)CC2SC(=N)NC2=O)sc2c1CCCC2 (stereo not drawn) [EU1794-27, tert-butyl 2-(2-(2-imino-4-oxothiazolidin-5-yl)acetamido)-4,5,6,7-tetrahydrobenzo[b]thiophene-3-carboxylate] | 0.99 ± 0.15
CCOC(=O)c1c(NC(=O)CC2SC(=N)NC2=O)sc2c1CCCC2 (stereo not drawn) [EU1794-4, ethyl 2-(2-(2-imino-4-oxothiazolidin-5-yl)acetamido)-4,5,6,7-tetrahydrobenzo[b]thiophene-3-carboxylate] | 0.88 ± 0.06
